One test concerns HIV-1. The settings on record: 48 weeks; atazanavir 300 mg/ritonavir 100 mg QD with Truvada versus lopinavir/r; cited from earlier work.
For the next test, the system named is CCR5 tropic HIV-1 virus. To be noted: maraviroc 300 mg QD arm, preliminary results; cited from earlier work.
A further test relates to CCR5-tropic HIV. The test can be described thus: Randomized controlled study of atazanavir/ritonavir QD with maraviroc or Truvada in treatment-naïve patients, 24 weeks. The settings on record: with atazanavir 300 mg QD and ritonavir 100 mg QD. The format is in vivo, human. An excerpt: To ascertain whether a once daily, nucleoside-sparing regimen using a CCR5 antagonist could be safely and efficaciously administered to HIV-positive patients infected with CCR5-tropic HIV, a randomized, controlled study is being conducted.

`COC(=O)N[C@H](C(=O)N[C@@H](Cc1ccccc1)[C@@H](O)CN(Cc1ccc(-c2ccccn2)cc1)NC(=O)[C@@H](NC(=O)OC)C(C)(C)C)C(C)(C)C` [atazanavir]: the “non-inferiority primary endpoint of undetectable viral load (HIV-1 RNA less than 50 copies/mL)” value in the test on HIV-1 is listed as “met the non-inferiority primary endpoint”.

With “N-{(1S)-3-[3-(3-isopropyl-5-methyl-4H-1,2,4-triazol-4-yl)-exo-8-azabicyclo[3.2.1]oct-8-yl]-1-phenylpropyl}-4, 4-difluorocyclohexanecarboxamide [maraviroc]”, the “non-inferiority versus the efavirenz arm” value in the test with CCR5 tropic HIV-1 virus is reported as “did not meet the regulatory prespecified criteria for non-inferiority”. Also, the “increase in CD4+” value in the test with CCR5-tropic HIV (after 24 weeks) amounted to 195 cells. In the test on CCR5-tropic HIV (week 24, HIV-1 RNA), the “percentage of patients who achieved less than 50 copies/mL” value worked out at 80% and the “percentage of patients who achieved less than 400 copies/mL” value was determined as 90%.

The values are drawn from patent US20130023496A1, “Combination Therapy Comprising A CCR5 Antagonist, A HIV-1 Protease Inhibtior and a Pharmacokinetic Enhancer” (priority 2010, published 2013).
